This assay has as its system PBMC. Briefly: IFNg/IL-5 dual ELISPOT after 14 day in vitro stimulation of PBMC with Tau peptides. The note with it: for PD % of Total Responders / PD Total SFC / PD Total Responders: PD donors; for % of total response / Average SFC per responder / Frequency of response / Total SFC per epitope: across all cohorts; for Total Responders / Total SFC: all three cohorts (PD, HC > 50, HC < 35); for HC < 35 Total Responders / HC < 35 Total SFC: healthy controls < 35 years old. The format is cell-based, human. The text has this: It was investigated whether T cell responses against Tau were detectable in the PD and healthy control (HC) donors. To this end, a panel of overlapping peptides spanning through the entire sequence of the Tau protein was synthesized. Since it is known that the Tau protein is post-translationally modified (mainly by phosphorylation), in several instances phosphorylated peptides were also synthesized. In all, 55 non-modified 16-mers overlapping by 8 and 14 modified 16-mers were synthesized.
PD: n=16, peptides tested 14-16 times; HC above 50 years old denominated as age-matched: n=11 (9-11 times) and HC below 35 years old (HC Young): n=13 (10-13 times).
These peptides were tested utilizing the following assay strategy. Briefly, PBMC from each donor were stimulated in vitro for 14 days as described (Hinz, D., 2015) with pools of 10 to 16 peptides each. After 14 days, the T cell cultures were assayed with IFNg/IL-5 dual ELISPOT assays […]. Positive pools were deconvoluted at day 17 to identify the specific individual epitopes recognized.

The mark [1] stands for this setting: healthy controls > 50 years old.

Where no end group is shown, it is not given here. [ ]: non-standard residue; d: D form. pT = C[C@@H](OP(=O)(O)O)[C@H](N)C(=O)O; pS = N[C@@H](COP(=O)(O)O)C(=O)O

Take “KTDHGAEIVYKSPVVS (listed as Homo sapiens) [Tau 16-mer, start 385]”: the “PD/HC > 50 Ratio of % Responders” value came to 7.0, the “PD/HC > 50 Ratio of Response” value came to 5.5, the “HC > 50 % of Total Responders” value came out at 8.3% and the “PD % of Total Responders” value is given as 58.3%. For the same sequence, the “% of total response” value is recorded as 5.7%, the “Average SFC per responder” value is 1679 SFC, the Frequency of response is listed as 22.6 and the “Total SFC per epitope” value was found to be 20142 SFC. Also, the “HC > 50 Total SFC” value (HC > 50, dominant epitopes) was found to be 2437 SFC. The “PD Total SFC” value (dominant epitopes) came out at 13336 SFC.

In the case of “GDTSPRHLSNVSSTGS (listed as Homo sapiens) [Tau 16-mer, start 401]”, the “PD/HC > 50 Ratio of % Responders” value was 0.3, the “PD/HC > 50 Ratio of Response” value was determined as 0.6, the “HC > 50 % of Total Responders” value is 50.0% and the “PD % of Total Responders” value came to 16.7%. The “% of total response” value worked out at 1.1%, the “Average SFC per responder” value is 633 SFC, the Frequency of response is reported as 11.3 and the “Total SFC per epitope” value came to 3798 SFC. Also, the “HC > 50 Total SFC” value (HC > 50, dominant epitopes) is on record as 1657 SFC. Moreover, the “PD Total SFC” value (dominant epitopes) was 997 SFC.

“PAPKTPPSSGEPPKSG (PAPK[pT]PPSSGEPPKSG; listed as Homo sapiens)”: the “PD Total Responders” value was determined as 0, the “PD Total SFC” value was found to be 0 SFC, the “Total Responders” value is recorded as 1 and the “Total SFC” value came out at 107 SFC. The “HC < 35 Total Responders” value is 0 and the “HC < 35 Total SFC” value came out at 0 SFC. Also, under setting [1], the “HC > 50 Total Responders” value is given as 1 and the “HC > 50 Total SFC” value was found to be 107 SFC.

As for SNVSSTGSIDMVDZPQ, the “PD Total Responders” value is 4, the “PD Total SFC” value is on record as 1484 SFC, the “Total Responders” value is 4 and the “Total SFC” value is recorded as 1484 SFC. The “HC < 35 Total Responders” value was found to be 0 and the “HC < 35 Total SFC” value is given as 0 SFC. Besides, under setting [1], the “HC > 50 Total Responders” value is 0 and the “HC > 50 Total SFC” value stood at 0 SFC.

Regarding TPPTREPKKVAVVRXP, the “PD Total Responders” value amounted to 4, the “PD Total SFC” value was found to be 1813 SFC, the “Total Responders” value is given as 7 and the “Total SFC” value is 2210 SFC. Besides, the “HC < 35 Total Responders” value is given as 3 and the “HC < 35 Total SFC” value was 397 SFC. Moreover, under setting [1], the “HC > 50 Total Responders” value was 0 and the “HC > 50 Total SFC” value is listed as 0 SFC.

Consider “GQKGQANATRIPAKTP (listed as Homo sapiens) [Tau 16-mer, start 161]”, for which the “PD/HC > 50 Ratio of % Responders” value is 4.0, the “PD/HC > 50 Ratio of Response” value was 3.5, the “HC > 50 % of Total Responders” value was 16.7% and the “PD % of Total Responders” value is reported as 66.7%. The “% of total response” value is 2.3%, the “Average SFC per responder” value is 1361 SFC, the Frequency of response was determined as 11.3 and the “Total SFC per epitope” value is given as 8164 SFC. The “HC > 50 Total SFC” value (HC > 50, dominant epitopes) is recorded as 1770 SFC. Moreover, the “PD Total SFC” value (dominant epitopes) is reported as 6247 SFC.

On to “DFKDRVQSKIGSLDNI (DFKDRVQSKIG[pS]LDNI; listed as Homo sapiens) [Tau 16-mer, start 345]”, for which the “PD/HC > 50 Ratio of % Responders” value amounted to 0.7, the “PD/HC > 50 Ratio of Response” value turned out to be 0.6, the “HC > 50 % of Total Responders” value was 60.0% and the “PD % of Total Responders” value is on record as 40.0%. Further, the “PD Total Responders” value is 2, the “PD Total SFC” value amounted to 2397 SFC, the “% of total response” value is 1.9% and the “Average SFC per responder” value was found to be 1345 SFC. Also, the Frequency of response was found to be 9.4, the “Total SFC per epitope” value came out at 6727 SFC, the “Total Responders” value was determined as 5 and the “Total SFC” value came to 6727 SFC. Further, the “HC < 35 Total Responders” value was 0 and the “HC < 35 Total SFC” value was 0 SFC. Further, under “HC > 50, dominant epitopes”, the “HC > 50 Total SFC” value came out at 4330 SFC. The “PD Total SFC” value (dominant epitopes) is recorded as 2397 SFC. In addition, under setting [1], the “HC > 50 Total Responders” value is 3 and the “HC > 50 Total SFC” value amounted to 4330 SFC.

PMPDLKNVKSKIGZTE: the “PD/HC > 50 Ratio of % Responders” value is 1.3, the “PD/HC > 50 Ratio of Response” value was 1, the “HC > 50 % of Total Responders” value is on record as 36.4% and the “PD % of Total Responders” value turned out to be 45.5%. Moreover, the “PD Total Responders” value is reported as 5, the “PD Total SFC” value is listed as 5175 SFC, the “% of total response” value was 3.2% and the “Average SFC per responder” value is on record as 1006 SFC. Also, the Frequency of response turned out to be 20.8, the “Total SFC per epitope” value turned out to be 11063 SFC, the “Total Responders” value was 11 and the “Total SFC” value turned out to be 11063 SFC. For the same sequence, the “HC < 35 Total Responders” value is recorded as 2 and the “HC < 35 Total SFC” value turned out to be 720 SFC. The “HC > 50 Total SFC” value (HC > 50, dominant epitopes) was 5168 SFC. For the setting “dominant epitopes”, the “PD Total SFC” value was determined as 5175 SFC. Under setting [1], the “HC > 50 Total Responders” value was determined as 4 and the “HC > 50 Total SFC” value came out at 5168 SFC.

Turning to “SLEDEAAGHVTQARMV (listed as Homo sapiens) [Tau 16-mer, start 113]”, the “PD/HC > 50 Ratio of % Responders” value came to 2.0, the “PD/HC > 50 Ratio of Response” value came out at 11, the “HC > 50 % of Total Responders” value is listed as 33.3% and the “PD % of Total Responders” value worked out at 66.7%. For the same sequence, the “% of total response” value was found to be 2.2%, the “Average SFC per responder” value was 1283 SFC, the Frequency of response was 11.3 and the “Total SFC per epitope” value came out at 7698 SFC. Also, the “HC > 50 Total SFC” value (HC > 50, dominant epitopes) worked out at 640 SFC. For the same sequence, the “PD Total SFC” value (dominant epitopes) is 7058 SFC.

On to “GKVQIINKKLDLSNVQ (listed as Homo sapiens) [Tau 16-mer, start 273]”, for which the “PD/HC > 50 Ratio of % Responders” value is 2.5, the “PD/HC > 50 Ratio of Response” value is given as 3.3, the “HC > 50 % of Total Responders” value turned out to be 20.0% and the “PD % of Total Responders” value turned out to be 50.0%. For the same sequence, the “% of total response” value came to 8.6%, the “Average SFC per responder” value was 1511 SFC, the Frequency of response came to 37.7 and the “Total SFC per epitope” value stood at 30211 SFC. The “HC > 50 Total SFC” value (HC > 50, dominant epitopes) amounted to 5560 SFC. The “PD Total SFC” value (dominant epitopes) was determined as 18290 SFC.

In the case of IDMVDZPQLATLADEV, the “PD Total Responders” value is 1, the “PD Total SFC” value stood at 197 SFC, the “Total Responders” value is given as 5 and the “Total SFC” value is given as 1703 SFC. For the same sequence, the “HC < 35 Total Responders” value is reported as 2 and the “HC < 35 Total SFC” value is 563 SFC. Besides, under setting [1], the “HC > 50 Total Responders” value is 2 and the “HC > 50 Total SFC” value is reported as 943 SFC.

On to “KVAVVRTPPKSPSSAK (KVAVVR[pT]PPKSPSSAK; listed as Homo sapiens)”, for which the “PD/HC > 50 Ratio of % Responders” value is “inf”, the “PD/HC > 50 Ratio of Response” value was “inf”, the “HC > 50 % of Total Responders” value came to 0.0% and the “PD % of Total Responders” value is given as 100.0%. The “PD Total Responders” value stood at 5, the “PD Total SFC” value is recorded as 4556 SFC, the “% of total response” value came out at 1.3% and the “Average SFC per responder” value is reported as 911 SFC. Further, the Frequency of response turned out to be 9.4, the “Total SFC per epitope” value was determined as 4556 SFC, the “Total Responders” value is 5 and the “Total SFC” value stood at 4556 SFC. For the same sequence, the “HC < 35 Total Responders” value was 0 and the “HC < 35 Total SFC” value is 0 SFC. Besides, where the note is “HC > 50, dominant epitopes”, the “HC > 50 Total SFC” value is 0 SFC. Also, the “PD Total SFC” value (dominant epitopes) was 4556 SFC. Besides, under setting [1], the “HC > 50 Total Responders” value came out at 0 and the “HC > 50 Total SFC” value is 0 SFC.

On to DFKDRVQSKIGZLDNI, for which the “PD/HC > 50 Ratio of % Responders” value stood at 2.0, the “PD/HC > 50 Ratio of Response” value is 3.7, the “HC > 50 % of Total Responders” value came to 28.6% and the “PD % of Total Responders” value turned out to be 57.1%. Also, the “PD Total Responders” value is 4, the “PD Total SFC” value is listed as 4490 SFC, the “% of total response” value was 1.9% and the “Average SFC per responder” value stood at 972 SFC. Besides, the Frequency of response came to 13.2, the “Total SFC per epitope” value is recorded as 6807 SFC, the “Total Responders” value is 7 and the “Total SFC” value came out at 6807 SFC. Moreover, the “HC < 35 Total Responders” value is given as 1 and the “HC < 35 Total SFC” value was found to be 1097 SFC. Besides, where the note is “HC > 50, dominant epitopes”, the “HC > 50 Total SFC” value is on record as 1220 SFC. In addition, the “PD Total SFC” value (dominant epitopes) was found to be 4490 SFC. Under setting [1], the “HC > 50 Total Responders” value was determined as 2 and the “HC > 50 Total SFC” value worked out at 1220 SFC.

With “ATLADEVSASLAKQGL (listed as Homo sapiens) [Tau 16-mer, start 426]”, the “PD/HC > 50 Ratio of % Responders” value came out at 1.5, the “PD/HC > 50 Ratio of Response” value amounted to 0.8, the “HC > 50 % of Total Responders” value amounted to 40.0% and the “PD % of Total Responders” value was found to be 60.0%. In addition, the “% of total response” value turned out to be 1.4%, the “Average SFC per responder” value came to 999 SFC, the Frequency of response is 9.4 and the “Total SFC per epitope” value is reported as 4997 SFC. Also, the “HC > 50 Total SFC” value (HC > 50, dominant epitopes) came out at 2803 SFC. Further, for the setting “dominant epitopes”, the “PD Total SFC” value came out at 2193 SFC.

The values above are taken from US20200095296A1, “USE OF PEPTIDES AS BIOMARKERS IN THE DIAGNOSIS, CONFIRMATION AND TREATMENT OF A NEUROLOGICAL DISORDER AND TCR AND/OR HLA IMMUNOPROFILING IN NEURODEGENERATIVE DISEASE” (THE TRUSTEES OF COLUMBIA UNIVERSITY IN THE CITY OF NEW YORK, priority 2017, published 2020).
